A value given as a limit tells only on which side of the number the result lay.

Chain of USP30 (Q70CQ3 57-517): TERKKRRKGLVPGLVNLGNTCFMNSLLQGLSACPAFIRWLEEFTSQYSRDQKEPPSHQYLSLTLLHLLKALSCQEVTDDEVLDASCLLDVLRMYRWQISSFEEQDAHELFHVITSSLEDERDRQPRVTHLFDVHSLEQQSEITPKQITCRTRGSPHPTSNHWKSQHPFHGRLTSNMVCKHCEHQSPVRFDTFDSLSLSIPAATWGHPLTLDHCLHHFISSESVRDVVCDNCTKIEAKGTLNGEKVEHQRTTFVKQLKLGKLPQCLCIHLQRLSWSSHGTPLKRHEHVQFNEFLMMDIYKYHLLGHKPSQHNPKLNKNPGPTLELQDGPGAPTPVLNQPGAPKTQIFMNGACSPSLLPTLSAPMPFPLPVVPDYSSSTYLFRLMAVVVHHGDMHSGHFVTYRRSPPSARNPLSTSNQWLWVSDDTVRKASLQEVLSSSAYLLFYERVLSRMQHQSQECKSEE

The assay addresses USP30 (Homo sapiens (Human), UniProt Q70CQ3). The assay can be described thus: USP30 Biochemical IC50 Assay. Conditions: fluorescence polarisation, TAMRA labelled peptide linked to ubiquitin; 30 min pre-incubation, read after 2 h; read-out: IC50 range. As to the method:
Reactions were performed in duplicate in black 384 well plates (small volume, Greiner 784076) in a final reaction volume of 21 μl. Either 1 μl of 50% DMSO or diluted compound was added to the plate. […] Enzyme and compound were incubated for 30 min at room temp. Reactions were initiated by the addition of 50 nM of TAMRA labelled peptide linked to ubiquitin via an iso-peptide bond as fluorescence polarisation substrate. Reactions were read immediately after addition of substrate and following a 2 h incubation at room temperature. Readings were performed on a Pherastar Plus (BMG Labtech). λ Excitation 540 nm; λ Emission 590 nm.
Background: In fluorescence polarisation assays a small probe gives low polarisation when free and higher when bound to something large.
For orientation: IC50 means the point on the concentration scale where inhibition reaches its midpoint. For the molecule `N#CN1CCCC1c1noc(-c2ccnc(-c3ccc(OC(F)(F)F)cc3)c2)n1` (centres unmarked) [Example 169, 2-(5-(2-(4-(Trifluoromethoxy)phenyl)-pyridin-4-yl)-1,2,4-oxadiazol-3-yl)pyrrolidine-1-carbonitrile], the IC50 lay within 1000 to 10000 nM.

For the molecule `N#CN1CCCC1c1noc(-c2cccc(-c3ccc([N+](=O)[O-])cc3)c2)n1` (centres unmarked) [Example 157, 2-(5-(4′-Nitro-[1,1′-biphenyl]-3-yl)-1,2,4-oxadiazol-3-yl)pyrrolidine-1-carbonitrile], the IC50 is under 100 nM.

For `N#CN1CCC(c2cc(-c3ccc(-c4ncccn4)cn3)n[nH]2)C1` (centres unmarked) [Example 195, 3-(3-(5-(Pyrimidin-2-yl)pyridin-2-yl)-1H-pyrazol-5-yl)pyrrolidine-1-carbonitrile], the IC50 is under 100 nM.

For `N#CN1CCC(c2nnc(-c3ccc(-c4ccccc4)cc3)[nH]2)C1` (centres unmarked) [Example 112, 3-(3-([1,1′-Biphenyl]-4-yl)-1H-1,2,4-triazol-5-yl)pyrrolidine-1-carbonitrile], the IC50 is 100 to 1000 nM.

Turning to `N#CN1CCC(c2cc(-c3ccnc(-c4ccccc4)c3)[nH]n2)C1` (centres unmarked) [Example 38, 3-(5-(2-Phenylpyridin-4-yl)-1H-pyrazol-3-yl)pyrrolidine-1-carbonitrile], the IC50 lay in the range of 100 to 1000 nM.

Regarding `N#Cc1cnn(-c2cc(-c3nc([C@@H]4CCCN4C#N)no3)ccn2)c1` [Example 193, (S)-1-(4-(3-(1-Cyanopyrrolidin-2-yl)-1,2,4-oxadiazol-5-yl)pyridin-2-yl)-1H-pyrazole-4-carbonitrile], the 50% inhibitory concentration (IC50) was in the range of 1000 to 10000 nM.

Turning to `N#Cc1ccc(-c2cccc(-c3nc([C@@H]4CCCN4C#N)no3)c2)cc1` [Example 174, (S)-2-(5-(4′-Cyano-[1,1′-biphenyl]-3-yl)-1,2,4-oxadiazol-3-yl)pyrrolidine-1-carbonitrile], the IC50 was under 100 nM.

For `N#Cc1cccc(-c2ccnc(-c3nc(C4CCCN4C#N)no3)c2)c1` (centres unmarked) [Example 172, 2-(5-(4-(3-Cyanophenyl)pyridin-2-yl)-1,2,4-oxadiazol-3-yl)pyrrolidine-1-carbonitrile], the IC50 fell in the range of 100 to 1000 nM.

`N#CN1CCC(c2[nH]nc(-c3cccc(N4CCCCC4)n3)c2F)C1` (centres unmarked) [Example 196, 3-(4-Fluoro-3-(6-(piperidin-1-yl)pyridin-2-yl)-1H-pyrazol-5-yl)pyrrolidine-1-carbonitrile]: the IC50 is 100 to 1000 nM.

Take `N#Cc1ccc2ccc(-c3nc([C@@H]4CCCN4C#N)no3)cc2n1` (stereo in doubt) [Example 179, 7-(3-(1-Cyanopyrrolidin-2-yl)-1,2,4-oxadiazol-5-yl)quinoline-2-carbonitrile]: the IC50 lay within 1000 to 10000 nM.

On to `CC1CC(c2cc(-c3cccc(-c4ccccc4)c3)n[nH]2)CN1C#N` (centres unmarked) [Example 27, 4-(3-([1,1′-Biphenyl]-3-yl)-1H-pyrazol-5-yl)-2-methylpyrrolidine-1-carbonitrile], for which the IC50 was in the range of 1000 to 10000 nM.

Regarding `CCc1cccc(-c2cc(C(=O)NC)c3nc([C@@H]4CCCN4C#N)oc3c2)c1` [Example 131, (S)-2-(1-Cyanopyrrolidin-2-yl)-6-(3-ethylphenyl)-N-methylbenzo[d]oxazole-4-carboxamide], the IC50 lay within 1000 to 10000 nM.

`COc1ccc(-c2cccc(-c3nc(C4CCCN4C#N)no3)c2)cn1` (centres unmarked) [Example 158, 2-(5-(3-(6-Methoxypyridin-3-yl)phenyl)-1,2,4-oxadiazol-3-yl)pyrrolidine-1-carbonitrile]: the IC50 fell in the range of 1000 to 10000 nM.

For the molecule `N#Cc1ccc(-c2cnc3[nH]c(C4CCN(C#N)C4)nc3c2)cc1` (single isomer, unassigned) [Example 91, 3-(6-(4-Cyanophenyl)-3H-imidazo[4,5-b]pyridin-2-yl)pyrrolidine-1-carbonitrile], the IC50 was in the range of 100 to 1000 nM.

As to `CC(C)Oc1ccc(-c2ccc3nc(C4CCN(C#N)C4)[nH]c3c2)cn1` (centres unmarked) [Example 77, 3-(6-(6-Isopropoxypyridin-3-yl)-1H-benzo[d]imidazol-2-yl)pyrrolidine-1-carbonitrile], the IC50 was in the range of 100 to 1000 nM.

Take `Cn1cc(-c2ccc(-c3nc(C4CCN(C#N)C4)no3)cc2)cn1` (centres unmarked) [Example 66, 3-(5-(4-(1-Methyl-1H-pyrazol-4-yl)phenyl)-1,2,4-oxadiazol-3-yl)pyrrolidine-1-carbonitrile]: the IC50 lay in the range of 100 to 1000 nM.

On to `CNC(=O)c1ccc(-c2ccc3nc(C4CCN(C#N)C4)[nH]c3c2)cc1` (centres unmarked) [Example 75, 4-(2-(1-Cyanopyrrolidin-3-yl)-1H-benzo[d]imidazol-6-yl)-N-methylbenzamide], for which the IC50 was 100 to 1000 nM.

On to `N#CN1CCC(c2noc(-c3cc(-c4ccccc4)nc4ccccc34)n2)C1` (centres unmarked) [Example 53, 3-(5-(2-Phenylquinolin-4-yl)-1,2,4-oxadiazol-3-yl)pyrrolidine-1-carbonitrile], for which the IC50 was in the range of 100 to 1000 nM.

Take `N#CN1CCC[C@H]1c1nc(-c2cccc(-c3ccccc3)c2)no1` [Example 141, (S)-2-(3-([1,1′-Biphenyl]-3-yl)-1,2,4-oxadiazol-5-yl)pyrrolidine-1-carbonitrile]: the IC50 was in the range of 100 to 1000 nM.

As for `COC(=O)c1ccccc1-c1cccc(-c2nc(C3CCCN3C#N)no2)c1` (centres unmarked) [Example 156, Methyl 3′-(3-(1-cyanopyrrolidin-2-yl)-1,2,4-oxadiazol-5-yl)-[1,1′-biphenyl]-2-carboxylate], the IC50 is 100 to 1000 nM.

For the molecule `CC(=O)Nc1ccc(-c2cc(C3CCN(C#N)C3)[nH]n2)cc1` (centres unmarked) [Example 9, N-(4-(5-(1-Cyanopyrrolidin-3-yl)-1H-pyrazol-3-yl)phenyl)acetamide], the IC50 was 1000 to 10000 nM.

Take `N#Cc1cc(F)cc(-c2cccc(-c3nc(C4CCCN4C#N)no3)c2)c1` (centres unmarked) [Example 163, 2-(5-(3′-Cyano-5′-fluoro-[1,1′-biphenyl]-3-yl)-1,2,4-oxadiazol-3-yl)pyrrolidine-1-carbonitrile]: the IC50 is under 100 nM.

In the case of `Cc1cncc(-c2cccc(-c3nc(C4CCCN4C#N)no3)c2)c1` (centres unmarked) [Example 164, 2-(5-(3-(5-Methylpyridin-3-yl)phenyl)-1,2,4-oxadiazol-3-yl)pyrrolidine-1-carbonitrile], the IC50 is 1000 to 10000 nM.

Regarding `N#CN1CCC(c2ncc(-c3ccccc3)c(=O)[nH]2)C1` (centres unmarked) [Example 120, 3-(6-Oxo-5-phenyl-1,6-dihydropyrimidin-2-yl)pyrrolidine-1-carbonitrile], the IC50 fell in the range of 1000 to 10000 nM.

As to `Cn1cc(-c2cccc(-c3nc(C4CCCN4C#N)no3)c2)cn1` (centres unmarked) [Example 148, 2-(5-(3-(1-Methyl-1H-pyrazol-4-yl)phenyl)-1,2,4-oxadiazol-3-yl)pyrrolidine-1-carbonitrile], the IC50 was 1000 to 10000 nM.

`N#CN1CC[C@@H](c2cc(-c3cccc(-c4cnoc4)c3)[nH]n2)C1` [Example 32, 3-(5-(3-(Isoxazol-4-yl)phenyl)-1H-pyrazol-3-yl)pyrrolidine-1-carbonitrile]: the IC50 lay within 1000 to 10000 nM.

Turning to `C[C@@H]1CN(C#N)C[C@H]1c1cc(-c2ccccc2)n[nH]1` (relative stereo) [Example 49, Trans-3-methyl-4-(3-phenyl-1H-pyrazol-5-yl)pyrrolidine-1-carbonitrile], the IC50 lay in the range of 1000 to 10000 nM.

For `Cn1cc(-c2cccc(-c3cc(C4CCN(C#N)C4)n[nH]3)c2)cn1` (centres unmarked) [Example 31, 3-(5-(3-(1-Methyl-1H-pyrazol-4-yl)phenyl)-1H-pyrazol-3-yl)pyrrolidine-1-carbonitrile], the half-inhibitory concentration (IC50) lay within 1000 to 10000 nM.

Consider `Cc1n[nH]c2cc(-c3ccc4oc([C@@H]5CCCN5C#N)nc4c3)ccc12` [Example 134, (S)-2-(5-(3-Methyl-1H-indazol-6-yl)-benzo[d]oxazol-2-yl)pyrrolidine-1-carbonitrile], for which the IC50 was 1000 to 10000 nM.

As for `N#CN1CCC(c2nnc(-c3ccccn3)[nH]2)C1` (centres unmarked) [Example 105, 3-(5-(Pyridin-2-yl)-4H-1,2,4-triazol-3-yl)pyrrolidine-1-carbonitrile], the IC50 lay in the range of 1000 to 10000 nM.

On to `Cc1cc(-c2cc(C3CCN(C#N)C3)[nH]n2)ccn1` (centres unmarked) [Example 11, 3-(3-(2-Methylpyridin-4-yl)-1H-pyrazol-5-yl)pyrrolidine-1-carbonitrile], for which the IC50 was in the range of 1000 to 10000 nM.

`N#Cc1cc(-c2ccnc(-c3nc([C@@H]4CCCN4C#N)no3)c2)ccn1` [Example 182, (S)-2′-(3-(1-Cyanopyrrolidin-2-yl)-1,2,4-oxadiazol-5-yl)-[4,4′-bipyridine]-2-carbonitrile]: the IC50 lay within 100 to 1000 nM.

`Cc1ccc(S(=O)(=O)NCc2ccccc2)cc1-c1ccc2oc([C@@H]3CCCN3C#N)nc2c1` [Example 139, (S)-N-Benzyl-3-(2-(1-cyanopyrrolidin-2-yl)-benzo[d]oxazol-5-yl)-4-methyl-benzenesulfonamide]: the IC50 lay in the range of 1000 to 10000 nM.

Regarding `N#Cc1ccc(-c2nccc(-c3nc([C@@H]4CCCN4C#N)no3)n2)cc1` [Example 185, (S)-2-(5-(2-(4-Cyanophenyl)pyrimidin-4-yl)-1,2,4-oxadiazol-3-yl)pyrrolidine-1-carbonitrile], the IC50 fell in the range of 100 to 1000 nM.

For the molecule `CCc1cccc(-c2ccc3nc([C@@H]4CCCN4C#N)oc3c2)c1` [Example 130, (S)-2-(6-(3-Ethylphenyl)benzo[d]oxazol-2-yl)pyrrolidine-1-carbonitrile], the IC50 was in the range of 100 to 1000 nM.

Consider `N#Cc1cnn(-c2nccc(-c3nc([C@@H]4CCCN4C#N)no3)n2)c1` [Example 187, (S)-1-(4-(3-(1-Cyanopyrrolidin-2-yl)-1,2,4-oxadiazol-5-yl)pyrimidin-2-yl)-1H-pyrazole-4-carbonitrile], for which the IC50 lay within 100 to 1000 nM.

Take `N#CN1CCCC1c1noc(-c2ccc(-c3ccccc3)cc2)n1` (centres unmarked) [Example 67, 2-(5-([1,1′-Biphenyl]-4-yl)-1,2,4-oxadiazol-3-yl)pyrrolidine-1-carbonitrile]: the IC50 lay in the range of 1000 to 10000 nM.

Consider `N#CN1CCC(c2cc(-c3cccc(-c4ccccc4)n3)[nH]n2)C1` (single isomer, unassigned) [Example 42, 3-(5-(6-Phenylpyridin-2-yl)-1H-pyrazol-3-yl)pyrrolidine-1-carbonitrile], for which the IC50 was 100 to 1000 nM.
